Measured values reported in patent publication US20240216352A1 (priority 2022, published 2024).
Several values for one entry are separate records, joined by “and”; a condition that tells them apart may be missing. Equal entries are not always repeated.

Legend:
participants with PPF = test: Phase 2 study, PPF cohort: efficacy (ppFVC, FVC); assay type: in vivo, human; details: for Difference (S.E.) in rate of decline in FVC (% Predicted), 30 mg - placebo: 30 mg BID
Experimental: A total of 123 participants with PPF were randomized. Participants (age ≥21 years) were randomized (1:1:1) to receive 30 mg or 60 mg Compound A or PBO twice daily for 26 weeks. […] Immunosuppressive medications (mycophenolate mofetil, mycophenolic acid, azathioprine and/or tacrolimus) were permitted only if dosing is stable for ≥6 months prior to screening. If receiving antifibrotic agents pirfenidone or nintedanib, patients had to receive a stable dosage for ≥3 months prior to screening and during the screening period; if not receiving pirfenidone or nintedanib, patients had to be naive to both drugs or not have received either 4 weeks prior to Day 1. A total of 47 (38.2%) subjects were receiving antifibrotic treatment (with or without immunosuppression therapy). Of those subjects, 34 were being treated with nintedanib and 13 with pirfenidone. Participants were stratified by usual interstitial pneumonia (UIP) pattern (presence versus absence) and background therapy (antifibrotics+/−ILD-targeted immunosuppression versus ILD-targeted immunosuppression alone versus none). UIP pattern was present in 52% of subjects and unclassifiable ILD was the most common disease categorization.
The study was not powered to detect statistical significance (no formal testing). No target effect size was defined in the study design. There were two estimand approaches for analysis: • Treatment Policy: Effect of treatment with dose reduction as part of treatment regimen.
While-On Treatment: Effect of treatment without dose reduction.
The main efficacy endpoint, rate of FVC decline (in % of predicted) from baseline to wk-26 in the PPF cohort, was estimated using a linear mixed-effects model utilizing all FVC timepoints. It was analyzed under a primary estimand (utilizing all data, treatment policy strategy), and under supplementary estimand (utilizing all data up to the point of dose reduction, while-on-treatment strategy). Analysis was performed in the overall population as well as in sub-groups by 1) background anti-fibrotic treatment or not 2) UIP radiographic pattern (presence or not). The mean baseline ppFVC was 66.7% for the PPF cohort.

participants with IPF = test: Phase 2 study, IPF cohort: safety and blood pressure monitoring; assay type: in vivo, human; details: for Nadir post-dose mean reduction from baseline in sitting SBP: Day 1, 2 hours post-dose
Experimental: A total of 278 participants with IPF were randomized and 276 participants were treated as of the final analyses data cut-off (4 Aug. 2022). Male and female participants […] with IPF and percent predicted forced vital capacity (ppFVC) […] and percent predicted DLCO (ppDLCO)≥25%; diagnosed within 7 years of screening; having a centrally-read chest HRCT obtained at screening that was consistent with UIP or probable UIP, or having a lung biopsy consistent with UIP, were eligible to enter the study. The mean baseline ppFVC for all subjects was 76.5%. In the primary IPF cohort, participants were randomized (1:1:1) to receive 30 mg or 60 mg Compound A or placebo (PBO) twice daily for 26 weeks. Participants were stratified by standard of care (SoC) IPF therapy (pirfenidone versus nintedanib versus none) and region (Japan versus Rest of World) at randomization.
Patient experiences any of the following, confirmed by retest within 15 minutes: • Seated systolic blood pressure <85 mmHg • Seated diastolic blood pressure <55 mmHg • Orthostatic hypotension
Patient experiences symptoms that, in the investigator's opinion, could be associated with a reduction in blood pressure and also experiences at least one of the following, confirmed by retest within 15 minutes: • Seated systolic blood pressure <100 mmHg or seated diastolic blood pressure <60 mmHg • Decrease of seated systolic blood pressure of ≥20 mmHg from the previous visit or decrease of seated diastolic blood pressure of ≥10 mmHg from the previous visit • Orthostatic hypotension • Orthostatic tachycardia

[1] = Active Total (30 mg and 60 mg groups)

CCCN(C)C(=O)OCc1c(-c2ccc(O[C@H]3CCC[C@H](C(=O)O)C3)c(C)n2)nnn1C [Compound A, (1S,3S)-3-((2-methyl-6-(1-methyl-5-(((methyl(propyl)carbamoyl)-oxy)methyl)-1H-1,2,3-triazol-4-yl)pyridin-3-yl)oxy)cyclohexane-1-carboxylic acid]
Difference (S.E.) in rate of decline in FVC (% Predicted), 30 mg - placebo (participants with PPF; UIP absent, primary estimand (treatment policy)): 2.25 (2.13) % Predicted | Difference (S.E.) in rate of decline in FVC (% Predicted), 30 mg - placebo (participants with PPF; UIP absent, supplementary estimand (while on treatment)): 2.26 (2.28) % Predicted | Difference (S.E.) in rate of decline in FVC (% Predicted), 30 mg - placebo (participants with PPF; UIP present, primary estimand (treatment policy)): 0.88 (1.6) % Predicted | Difference (S.E.) in rate of decline in FVC (% Predicted), 30 mg - placebo (participants with PPF; UIP present, supplementary estimand (while on treatment)): 1.28 (1.61) % Predicted | Difference (S.E.) in rate of decline in FVC (% Predicted), 30 mg - placebo (participants with PPF; not receiving antifibrotic treatment, primary estimand (treatment policy)): 1.28 (1.63) % Predicted | Difference (S.E.) in rate of decline in FVC (% Predicted), 30 mg - placebo (participants with PPF; not receiving antifibrotic treatment, supplementary estimand (while on treatment)): 1.34 (1.66) % Predicted | Difference (S.E.) in rate of decline in FVC (% Predicted), 30 mg - placebo (participants with PPF; overall, primary estimand (treatment policy)): 1.57 (1.29) % Predicted | Difference (S.E.) in rate of decline in FVC (% Predicted), 30 mg - placebo (participants with PPF; overall, supplementary estimand (while on treatment)): 1.78 (1.34) % Predicted | Difference (S.E.) in rate of decline in FVC (% Predicted), 30 mg - placebo (participants with PPF; receiving antifibrotic treatment, primary estimand (treatment policy)): 1.99 (2.12) % Predicted | Difference (S.E.) in rate of decline in FVC (% Predicted), 30 mg - placebo (participants with PPF; receiving antifibrotic treatment, supplementary estimand (while on treatment)): 2.58 (2.25) % Predicted | Dose response of efficacy (ppFVC decline) (participants with PPF; 30 mg and 60 mg BID): Clear dose response | Difference (S.E.) in rate of decline in FVC (% Predicted), 60 mg - placebo (participants with PPF; 60 mg BID, UIP absent, primary estimand (treatment policy)): 3.81 (2.02) % Predicted | Difference (S.E.) in rate of decline in FVC (% Predicted), 60 mg - placebo (participants with PPF; 60 mg BID, UIP absent, supplementary estimand (while on treatment)): 3.80 % Predicted and 3.8 (2.17) % Predicted | Difference (S.E.) in rate of decline in FVC (% Predicted), 60 mg - placebo (participants with PPF; 60 mg BID, UIP present, primary estimand (treatment policy)): 2.49 (1.61) % Predicted | Difference (S.E.) in rate of decline in FVC (% Predicted), 60 mg - placebo (participants with PPF; 60 mg BID, UIP present, supplementary estimand (while on treatment)): 2.12 % Predicted and 2.12 (1.62) % Predicted | Difference (S.E.) in rate of decline in FVC (% Predicted), 60 mg - placebo (participants with PPF; 60 mg BID, not receiving antifibrotic treatment, primary estimand (treatment policy)): 2.85 (1.6) % Predicted | Difference (S.E.) in rate of decline in FVC (% Predicted), 60 mg - placebo (participants with PPF; 60 mg BID, not receiving antifibrotic treatment, supplementary estimand (while on treatment)): 2.61 % Predicted and 2.61 (1.63) % Predicted | Difference (S.E.) in rate of decline in FVC (% Predicted), 60 mg - placebo (participants with PPF; 60 mg BID, overall, primary estimand (treatment policy)): 3.2 % Predicted and 3.15 (1.27) % Predicted | Difference (S.E.) in rate of decline in FVC (% Predicted), 60 mg - placebo (participants with PPF; 60 mg BID, overall, supplementary estimand (while on treatment)): 2.9 % Predicted and 2.94 % Predicted and 2.94 (1.32) % Predicted | Difference (S.E.) in rate of decline in FVC (% Predicted), 60 mg - placebo (participants with PPF; 60 mg BID, receiving antifibrotic treatment, primary estimand (treatment policy)): 3.74 (2.1) % Predicted | Difference (S.E.) in rate of decline in FVC (% Predicted), 60 mg - placebo (participants with PPF; 60 mg BID, receiving antifibrotic treatment, supplementary estimand (while on treatment)): 3.28 % Predicted and 3.28 (2.21) % Predicted | Adjusted mean treatment difference in absolute change in FVC vs placebo (participants with PPF; 60 mg BID, week 26): 87.4 mL | Consistency of efficacy across sub-groups (participants with PPF; irrespective of background antifibrotics or of UIP pattern): Efficacy consistent in all sub-groups | Dose reductions to 10 mg BID due to protocol-defined low BP criteria (participants with IPF; 30 mg BID): 7 (7.7%) n (%) and 7 (7.7) n (%) | Treatment discontinuations due to TEAEs (participants with IPF; 30 mg BID): 9.9% | Asymptomatic low blood pressure (participants with IPF; 30 mg BID (N = 91)): 22 (24.2%) n (%) and 22 (24.2) n (%) | Orthostatic hypotension observed in asymptomatic low BP (participants with IPF; 30 mg BID (N = 91)): 21 (23.1%) n (%) and 21 (23.1) n (%) | Orthostatic hypotension observed in symptomatic low BP (participants with IPF; 30 mg BID (N = 91)): 9 (9.9%) n (%) and 9 (9.9) n (%) | Orthostatic intolerance (participants with IPF; 30 mg BID (N = 91)): 10 (11.0%) n (%) and 10 (11.0) n (%) | Subjects discontinuing study treatment due to a TEAE (participants with IPF; 30 mg BID (N = 91)): 9 (9.9%) n (%) and 9 (9.9) n (%) | Subjects who died (participants with IPF; 30 mg BID (N = 91)): 4 (4.4%) n (%) and 4 (4.4) n (%) | Subjects who died due to a TEAE (participants with IPF; 30 mg BID (N = 91)): 3 (3.3%) n (%) and 3 (3.3) n (%) | Subjects with at least one AESI (participants with IPF; 30 mg BID (N = 91)): 18 (19.8%) n (%) and 18 (19.0) n (%) | Subjects with at least one TEAE (participants with IPF; 30 mg BID (N = 91)): 69 (75.8%) n (%) and 69 (75.8) n (%) | Subjects with at least one TEAE related to the study treatment (participants with IPF; 30 mg BID (N = 91)): 23 (25.3%) n (%) and 23 (25.3) n (%) | Subjects with at least one TESAE (participants with IPF; 30 mg BID (N = 91)): 10 (11.0%) n (%) and 10 (11.0) n (%) | Symptomatic low blood pressure (participants with IPF; 30 mg BID (N = 91)): 11 (12.1%) n (%) and 11 (12.1) n (%) | Nadir post-dose mean reduction from baseline in sitting SBP (participants with IPF; 30 mg): −10.5 mmHg | Dose reductions to 10 mg BID due to protocol-defined low BP criteria (participants with IPF; 60 mg BID): 6 (6.5%) n (%) and 6 (6.5) n (%) | Treatment discontinuations due to TEAEs (participants with IPF; 60 mg BID): 6.5% | Asymptomatic low blood pressure (participants with IPF; 60 mg BID (N = 93)): 17 (18.3%) n (%) and 17 (18.3) n (%) | Orthostatic hypotension observed in asymptomatic low BP (participants with IPF; 60 mg BID (N = 93)): 14 (15.1%) n (%) and 14 (15.1) n (%) | Orthostatic hypotension observed in symptomatic low BP (participants with IPF; 60 mg BID (N = 93)): 5 (5.4%) n (%) and 5 (5.4) n (%) | Orthostatic intolerance (participants with IPF; 60 mg BID (N = 93)): 2 (2.2%) n (%) and 2 (2.2) n (%) | Subjects discontinuing study treatment due to a TEAE (participants with IPF; 60 mg BID (N = 93)): 6 (6.5%) n (%) and 6 (6.5) n (%) | Subjects who died (participants with IPF; 60 mg BID (N = 93)): 5 (5.4%) n (%) and 5 (5.4) n (%) | Subjects who died due to a TEAE (participants with IPF; 60 mg BID (N = 93)): 4 (4.3%) n (%) and 4 (4.3) n (%) | Subjects with at least one AESI (participants with IPF; 60 mg BID (N = 93)): 9 (9.7%) n (%) and 9 (9.7) n (%) | Subjects with at least one TEAE (participants with IPF; 60 mg BID (N = 93)): 69 (74.2%) n (%) and 69 (74.2) n (%) | Subjects with at least one TEAE related to the study treatment (participants with IPF; 60 mg BID (N = 93)): 25 (26.9%) n (%) and 25 (26.9) n (%) | Subjects with at least one TESAE (participants with IPF; 60 mg BID (N = 93)): 10 (10.8%) n (%) and 10 (10.8) n (%) | Symptomatic low blood pressure (participants with IPF; 60 mg BID (N = 93)): 6 (6.5%) n (%) and 6 (6.5) n (%) | Risk of orthostatic and low BP events compared to PBO (participants with IPF; 60 mg twice daily (BID)): not associated with any increased risk of orthostatic intolerance, orthostatic hypotension, orthostatic tachycardia, or symptomatic or asymptomatic low BP | Nadir post-dose mean reduction from baseline in sitting SBP (participants with IPF; 60 mg): −14.1 mmHg | Subjects discontinuing study treatment due to a TEAE (participants with IPF; [1]): 15 (8.2) n (%) | Subjects who died (participants with IPF; [1]): 9 (4.9) n (%) | Subjects who died due to a TEAE (participants with IPF; [1]): 7 (3.8) n (%) | Subjects with at least one AESI (participants with IPF; [1]): 27 (14.7) n (%) | Subjects with at least one TEAE (participants with IPF; [1]): 138 (75.0) n (%) | Subjects with at least one TEAE related to the study treatment (participants with IPF; [1]): 48 (26.1) n (%) | Subjects with at least one TESAE (participants with IPF; [1]): 20 (10.9) n (%)
